Laboratory results reported in patent US10077289B2, “Cyclosporins modified on the MeBmt sidechain by heterocyclic rings” (priority 2015, dated 2018).
In brackets after ≈: the same amount, converted by molar mass. Where two headings read alike, the source gives them in different places.

How the values were obtained:
[1] = Water Solubility Assay (measured in pH 7.8 buffer); type: physicochemical; conditions: 25 °C, kinetic from dmso stock
Procedure: Water Solubility Assay (Measured in pH 7.8 Buffer)
The aqueous solubility of a compound of Formula I in buffer (pH 7.8) was measured by recording the onset of precipitation of the compound as a function of increasing concentration. The onset of precipitation, if it occurred, was detected by an increase in absorbance at 650 nm.
Assay Buffer: 35 mM HEPES pH 7.8
Stock solutions of Control and Test Compounds: 10 mM in 100% DMSO.
10 mM stock solutions of control and test compounds were prepared in 100% DMSO.
Assay buffer (247.5 μl) was placed into flat bottomed transparent 96-well plate. For blank samples DMSO (2.5 μl) was added. For test and control samples 2.5 μl of the appropriate DMSO dilution stocks were added to the appropriate well. All test and control compounds were performed in triplicate.
The plates were sealed with adhesive plate seal and shaken at 250 rpm at 25° C. for 18 h on a plate shaker. After incubation the plate seals were taken off and any bubbles observed in wells removed. The plates were read on a SpectraMaxM5 with a 5 s pre-shake at 650 nm. Data files were transferred to the appropriate worksheet and the solubility range of the compounds was calculated from the data. The values shown in the Tables indicate the concentration in μM (micromolar) at which the compound remains in solution.

[2] = target: Human recombinant cyclophilin A (Cyp A) (Homo sapiens (Human), UniProt P62937); experiment: Protease-free PPIase assay
Procedure: Protease-Free PPIase Assay
The protease-free PPIase assay measures the rate of cis to trans conversion of a peptide substrate catalyzed by the enzyme cyclophilin A. Addition of a cyclophilin A inhibitor (e.g., a test compound) slows the catalyzed rate and a Ki value is obtained.
35 mM HEPES pH 7.8, filtered through a 0.2 μm filter. 50 μM DTT was added prior to use each day and then the buffer was stored on ice.
Human recombinant cyclophilin A (Cyp A) (Sigma C3805) enzyme was diluted to 1 μM with enzyme dilution buffer (20 mM HEPES pH 7.8, 40% glycerol, 50 μM DTT and 1 μM BSA) and stored at −20° C.
Succinimide-Ala-Ala-Pro-Phe-p-nitroanilide (SUC-AAPF-pNA) (from Bachem AG, L-1400), 20 mg/ml prepared in 0.5 M LiCl in trifluoroethanol.
The temperature is monitored by the use of a temperature probe. To prevent UV degradation of test compounds, the light below 290 nm was blocked using a glass slide in the light path. 1.5 ml of the assay buffer was put into a 3 ml quartz cuvette and cooled to 10.0±0.1° C. while stirring (vigorous but not so fast as to produce cavitation). The inhibitor was diluted in 100% DMSO, and then added to the assay to a maximum final concentration of 0.5% DMSO in the assay. A blank spectrum was obtained, then 3 μL of enzyme was added (2 nM final concentration) and then 3 μL substrate (60 μM final concentration) added. The absorbance was measured at 330 nm for 300 s or 500 s for blank runs (NOTE: the substrate must be added in one quick injection and the measurements started immediately to minimize mixing errors).
A first order rate equation was fitted to the absorbance data, for each concentration of inhibitor, to obtain the rate constant (the first 10 to 15 seconds were excluded as mixing causes errors in this portion of curve). The catalytic rate was calculated from the enzymatic rate constant minus the background rate constant. An exponential curve was generated using the catalytic rate constants versus the inhibitor concentration to obtain the Ki value for the inhibitor. The Ki value is indicative of the binding affinity between the test compound and cyclophilin A.

[3] = target: calcineurin/cyclophilin A (Homo sapiens (Human), UniProt P62937+P63098+Q08209); experiment: Calcineurin Phosphatase (CaN) Assay (+CypA); type: biochemical
Source text: Calcineurin Phosphatase (CaN) Assay
The calcineurin phosphatase assay is a means for estimating the immunosuppressive potential of a test compound. Calcineurin is a serine-threonine protein phosphatase that on activation dephosphorylates members of the nuclear factor of activated T cells (NFAT), which are important in T lymphocyte activation.
To investigate the immunosuppressive potential of exemplary compounds of Formula I, which are cyclosporin analogs, their ability to inhibit calcineurin activity was measured in the presence and absence of Cyp A.
The CaN assay kit used is based on a colorimetric assay for measuring calcineurin phosphatase activity, and it is commercially available (Enzo Life Sciences and Calbiochem). Calmodulin is also required for calcineurin activity and RII phosphopeptide is used as an efficient peptide substrate for calcineurin. […] The detection of free phosphate released is based on the classic Malachite green assay.
Enzo Life Sciences CaN Assay Kit: BML-AK804
Malachite Green: BIOMOL Green™ reagent
Calmodulin (Human, recombinant): was thawed on ice, diluted 1:50 with 2× assay buffer, and then stored on ice.
Calcineurin: was thawed quickly, stored on ice immediately, diluted 1:12.5 with 1× assay buffer, and then stored on ice.
R-II Substrate: 915 μL ultrapure water (UPW) was added to the 1.5 mg vial substrate to give a final concentration of 0.75 mM.
Inhibitors: 2.5 mM inhibitor in 100% DMSO.
Cyp A: recombinant human CypA (Sigma C3805), 1 mg/ml; Recombinant 6-His tagged CypA prepared by the University of Edinburgh was also used.
Inhibitor dilutions: inhibitor compounds were diluted in UPW in polypropylene low-binding 96 well plates at 5× the final assay concentration.
Assay Setup: using the half area 96 well plates supplied with the kit, 10 μl UPW was added to duplicate wells to provide the non-inhibited control. 10 μl of the inhibitor or the inhibitor/Cyp A complex was added to the appropriate sample wells. 25 μl of the 2× assay buffer with CaM was added to all wells, then 5 μl of CaN was added to all wells (40 U per well final concentration) except duplicate ‘no calcineurin blank’ wells to which 5 μL 1× assay buffer was added. The assay plate was placed in an oven at 30° C. for 15 minutes to equilibrate to the reaction temperature. The reaction was started by the addition of 10 μl RII-peptide (0.15 mM final concentration). The reaction was allowed to proceed at 30° C. for a time period in which the reaction is linear for about 60 minutes. The reaction was then terminated by adding 100 μl of the Malachite Green reagent. The color was allowed to develop for 15-30 minutes at room temperature before the absorbance at 620 nm was measured using a plate reader (Molecular Devices—SpectraMax M5). The data were analyzed by subtracting ‘no Calcineurin blank’ from all the absorbance readings and plotting the background corrected absorbances against Log10 inhibitor concentration. A sigmoidal-dose response curve was fitted to the data using GraphPad Prism Software.
It exerts its immunosuppressive activity by binding to cyclophilin A to form a complex, which then binds to calcineurin and thereby inhibits calcineurin activity.

[4] = in the presence of Cyp A, 1:1 complex with inhibitor, read-out: Calcineurin Phosphatase (CaN) Assay (+CypA) IC50
[5] = 35 mM HEPES buffer pH 7.8, aqueous buffer, 35 mM HEPES pH 7.8, 1% DMSO, 18 h, read-out: Water Solubility Assay, concentration at which the compound remains in solution
[6] = read-out: Protease-free PPIase Assay Ki, human recombinant Cyp A, 10 °C

solubility at 18 h ([1]; pH 7.8, aqueous buffer)	Ki [2]	Structure (SMILES)	IC50 [3, 4]	solubility at 18 h [1, 5]	Ki [2, 6]	IC50 [3]
75 to 100 µM (≈ 94.3 to 126 µg/mL)	15 nM	CC[C@H]1NC(=O)[C@@H]([C@H](O)[C@H](C)Cc2nccn2C)N(C)C(=O)[C@@H](C(C)C)N(C)C(=O)[C@@H](CC(C)C)N(C)C(=O)[C@@H](CC(C)C)N(C)C(=O)[C@H](C)NC(=O)[C@@H](C)NC(=O)[C@@H](CC(C)C)N(C)C(=O)[C@@H](C(C)C)NC(=O)[C@H](CC(C)C)N(C)C(=O)[C@@H](C)N(C)C1=O [Compound 1, [(2S,3R,4R)-3-Hydroxy-4-methyl-2-(methylamino)-5-(1-methyl-1H-imidazol-2-yl)-pentanoic acid]^1 [(R)-methyl-Sar]^3 cyclosporin A]	2700 nM	–	–	–
–	–	CC[C@H]1NC(=O)[C@@H]([C@H](O)[C@H](C)Cc2nccn2CCN2CCOCC2)N(C)C(=O)[C@@H](C(C)C)N(C)C(=O)[C@@H](CC(C)C)N(C)C(=O)[C@@H](CC(C)C)N(C)C(=O)[C@H](C)NC(=O)[C@@H](C)NC(=O)[C@@H](CC(C)C)N(C)C(=O)[C@@H](C(C)C)NC(=O)[C@H](CC(C)C)N(C)C(=O)[C@@H](C)N(C)C1=O [Compound 2, [(2S,3R,4R)-3-Hydroxy-4-methyl-2-(methylamino)-5-(1-(N-morpholino-ethyl)-1H-imidazol-2-yl)-pentanoic acid]^1 [(R)-methyl-Sar]^3 cyclosporin A]	–	> 100 µM	4.6 nM	> 10000 nM
–	–	CC[C@H]1NC(=O)[C@@H]([C@H](O)[C@H](C)Cc2nccn2CCN2CCCC2)N(C)C(=O)[C@@H](C(C)C)N(C)C(=O)[C@@H](CC(C)C)N(C)C(=O)[C@@H](CC(C)C)N(C)C(=O)[C@H](C)NC(=O)[C@@H](C)NC(=O)[C@@H](CC(C)C)N(C)C(=O)[C@@H](C(C)C)NC(=O)[C@H](CC(C)C)N(C)C(=O)[C@@H](C)N(C)C1=O [Compound 3, [(2S,3R,4R)-3-Hydroxy-4-methyl-2-(methylamino)-5-(1-(N-pyrrolidinyl-ethyl)-1H-imidazol-2-yl)pentanoic acid]^1 [(R)-methyl-Sar]^3 cyclosporin A]	> 10000 nM	> 100 µM	8.6 nM	–
–	–	CC[C@H]1NC(=O)[C@@H]([C@H](O)[C@H](C)Cc2nccn2CCN(C)C)N(C)C(=O)[C@@H](C(C)C)N(C)C(=O)[C@@H](CC(C)C)N(C)C(=O)[C@@H](CC(C)C)N(C)C(=O)[C@H](C)NC(=O)[C@@H](C)NC(=O)[C@@H](CC(C)C)N(C)C(=O)[C@@H](C(C)C)NC(=O)[C@H](CC(C)C)N(C)C(=O)[C@@H](C)N(C)C1=O [Compound 4, [(2S,3R,4R)-5-(1-(N,N-Dimethyl-ethyl)-1H-imidazol-2-yl)-3-hydroxy-4-methyl-2-(methylamino)pentanoic acid]^1 [(R)-methyl-Sar]^3 cyclosporin A]	6900 nM	> 100 µM	5.1 nM	–
–	–	CC[C@H]1NC(=O)[C@@H]([C@H](O)[C@H](C)Cc2nccn2CCC(F)(F)F)N(C)C(=O)[C@@H](C(C)C)N(C)C(=O)[C@@H](CC(C)C)N(C)C(=O)[C@@H](CC(C)C)N(C)C(=O)[C@H](C)NC(=O)[C@@H](C)NC(=O)[C@@H](CC(C)C)N(C)C(=O)[C@@H](C(C)C)NC(=O)[C@H](CC(C)C)N(C)C(=O)[C@@H](C)N(C)C1=O [Compound 8, [(2S,3R,4R)-3-Hydroxy-4-methyl-2-(methylamino)-5-[3-(3,3,3-trifluoro-propyl)-3H-imidazol-2-yl]-pentanoic acid]^1 [(R)-methyl-Sar]^3 cyclosporin A]	> 10000 nM	–	7.4 nM	–
25 to 50 µM (≈ 32 to 63.9 µg/mL)	–	CC[C@H]1NC(=O)[C@@H]([C@H](O)[C@H](C)Cc2nc3ccccc3[nH]2)N(C)C(=O)[C@@H](C(C)C)N(C)C(=O)[C@@H](CC(C)C)N(C)C(=O)[C@@H](CC(C)C)N(C)C(=O)[C@H](C)NC(=O)[C@@H](C)NC(=O)[C@@H](CC(C)C)N(C)C(=O)[C@@H](C(C)C)NC(=O)[C@H](CC(C)C)N(C)C(=O)CN(C)C1=O [Compound 10, [(2S,3R,4R)-1-(1H-Benzimidazol-2-yl)-3-hydroxy-4-methyl-2-(methylamino)pentanoic acid]^1 cyclosporin A]	–	–	–	–
–	1.5 nM	CC[C@H]1NC(=O)[C@@H]([C@H](O)[C@H](C)CCCc2ccc(F)cn2)N(C)C(=O)[C@@H](C(C)C)N(C)C(=O)[C@@H](CC(C)C)N(C)C(=O)[C@@H](CC(C)C)N(C)C(=O)[C@H](C)NC(=O)[C@@H](C)NC(=O)[C@@H](CC(C)C)N(C)C(=O)[C@@H](C(C)C)NC(=O)[C@H](CC(C)C)N(C)C(=O)[C@@H](C)N(C)C1=O [Compound 14, [(2S,3R,4R)-7-(5-Fluoro-pyridin-2-yl)-3-hydroxy-4-methyl-2-(methylamino)-heptanoic acid]^1 [(R)-methyl-Sar]^3 cyclosporin A]	8750 nM	–	–	–
–	–	CC[C@H]1NC(=O)[C@@H]([C@H](O)[C@H](C)CCCc2cn3c(n2)CCCC3)N(C)C(=O)[C@@H](C(C)C)N(C)C(=O)[C@@H](CC(C)C)N(C)C(=O)[C@@H](CC(C)C)N(C)C(=O)[C@H](C)NC(=O)[C@@H](C)NC(=O)[C@@H](CC(C)C)N(C)C(=O)[C@@H](C(C)C)NC(=O)[C@H](CC(C)C)N(C)C(=O)[C@@H](C)N(C)C1=O [Compound 19]	–	–	5.4 nM	> 10000 nM
> 100 µM	–	CC[C@H]1NC(=O)[C@@H]([C@H](O)[C@H](C)CCCc2ncco2)N(C)C(=O)[C@@H](C(C)C)N(C)C(=O)[C@@H](CC(C)C)N(C)C(=O)[C@@H](CC(C)C)N(C)C(=O)[C@H](C)NC(=O)[C@@H](C)NC(=O)[C@@H](CC(C)C)N(C)C(=O)[C@@H](C(C)C)NC(=O)[C@H](CC(C)C)N(C)C(=O)[C@@H](C)N(C)C1=O [Compound 24]	–	–	–	–
